Where “and” joins values, the source holds several entries; their conditions need not be identical. Equal values may be shown once. Read-outs that look alike come from different tables or passages of the source.
Columns and labels:
LieIF4A [1] = target: T1, LieIF4A (Leishmania infantum, UniProt A4HRK0); conditions: cited from earlier work; for Ki: ATPase kinetics, calculated from data in ref 7; for IC50: read-out: LieIF4A ATPase assay IC50
T1 construct: His6; made in house; host or cells: Escherichia coli Rosetta
T1 sequence (A4HRK0 1-403): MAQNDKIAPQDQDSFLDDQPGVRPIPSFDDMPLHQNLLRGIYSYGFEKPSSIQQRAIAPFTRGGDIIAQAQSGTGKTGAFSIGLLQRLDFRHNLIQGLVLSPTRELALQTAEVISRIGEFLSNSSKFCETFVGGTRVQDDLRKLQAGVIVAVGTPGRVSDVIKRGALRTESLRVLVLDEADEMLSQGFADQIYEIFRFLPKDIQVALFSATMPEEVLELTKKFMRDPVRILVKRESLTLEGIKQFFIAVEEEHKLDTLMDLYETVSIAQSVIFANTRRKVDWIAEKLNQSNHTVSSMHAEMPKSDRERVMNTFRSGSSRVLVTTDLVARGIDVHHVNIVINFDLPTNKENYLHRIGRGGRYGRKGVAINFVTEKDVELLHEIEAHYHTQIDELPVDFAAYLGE

[2] = test system: L. infantum promastigotes (LV50); parameters: method as in PMID 29346371; conditions: cited from earlier work
eIF4AMus [3] = target: T2, eIF4AMus (Mus musculus, UniProt P60843); parameters: method as in PMID 29346371; conditions: ATPase kinetics, calculated from data in ref 7, cited from earlier work
T2 construct: His6; made in house; host or cells: Escherichia coli Rosetta

[4] = test system: L. infantum promastigotes (LV50); experiment: MTT viability assay on promastigotes; type: cell-based, Leishmania infantum; conditions: for IC50: Leishmania infantum, stationary phase promastigotes, 24 h
Experimental: The MON1 L. infantum laboratory strain LV50 originating from a visceral leishmaniasis case (Laboratory of Molecular Epidemiology and Experimental Pathology, Institut Pasteur de Tunis) was used to test the effect of the chemical compounds. Promastigote cultures were inoculated in RPMI-1640 media supplemented with 2 mM L-glutamine, 100 U/mL penicillin, 100 U/mL streptomycin and 10% (v/v) heat-inactivated fetal bovine serum at 22 °C. Promastigotes were collected at the beginning of the stationary phase (day 5), counted, centrifuged and seeded at 10^6/mL in 10 mL of complete media.
The effect of the chemical compounds on the viability of L. infantum promastigotes was evaluated by a colorimetric MTT (3-(4,5-dimethylthiazol-2yl)-2,5-diphenyl tetrazolium bromide) 96-well plate assay as previously described in [7]. This test consisted of a reduction of tetrazolium salt to a […] crystal (blue formazan) by the succinate dehydrogenase activity of mitochondria in living cells, which can be quantified by spectrophotometry. Briefly, 90 μL of LV50 promastigotes harvested from the stationary growth phase of 10^6/mL culture were added to a 96-well culture plate with various concentrations of the selected compounds to obtain a final volume of 100 µL, compound concentrations of 1.5–100 μM, and a final concentration of 1% DMSO per well. Plates were incubated at 25 °C for 24 h.
(§1) Mock-treated THP-1-derived macrophages and promastigotes (1% DMSO) were used as controls. After 24 h of incubation, MTT solution was added at 1 mg/mL to each well and incubated at the appropriate cell temperatures for 4 h. Then, 150 μL of DMSO was added to each well to dissolve the blue formazan, and the optical density (OD) was measured at 560 nm with a microplate reader (MULTISCAN, Labsystems, Thermo Fisher Scientific, Ratastie, Finland).
The promastigotes and THP-1-derived macrophage viabilities were expressed as the percentage of the viable promastigotes or cells in treated conditions relative to the 1% DMSO cultures, as previously described in [7]. […]

[5] = test system: THP-1-derived macrophages; experiment: MTT cytotoxicity assay on macrophages; type: cell-based, human; conditions: MTT, 24 h; read-out: Uninfected THP-1-Derived Macrophages CC50
Experimental: (§2) The human myelomonocytic cell line, THP-1, was ordered from the American Type Culture Collection (ATCC, TIB-202). Cells were maintained in RPMI 1640/Glutamax-I media (Gibco BRL, Bleiswijk, The Netherlands) supplemented with 10% heat-inactivated fetal calf serum (Gibco, Bleiswijk, The Netherlands) plus penicillin G (100 U/mL) and streptomycin ([…]). THP-1 cells were differentiated to macrophages after their treatment with 20 ng/mL phorbol […] (PMA) (Sigma, St. Louis, MO, USA) for 48 h at 37 °C, 5% CO2. The viability of THP-1 mature macrophage-like cells was determined to be >97% by the Trypan blue dye exclusion assay.
(§3) For the cytotoxicity assay, we used the THP-1-derived macrophages (50,000 cells/well) seeded in 96-well plates and treated with serial concentrations of compounds at the same conditions as for the promastigotes for 24 h.
as §1
(§4) The promastigotes and THP-1-derived macrophage viabilities were expressed as the percentage of the viable promastigotes or cells in treated conditions relative to the 1% DMSO cultures, as previously described in [7]. The half maximal inhibitory concentration (IC50) and 50% cytotoxic concentrations (CC50) values were calculated for all the tested compounds by interpolation.

[6] = MTT cytotoxicity assay on macrophages; type: cell-based, human; conditions: human
Experimental: as §2, §3, §1, §4

[7] = test system: THP-1-derived macrophages; conditions: cited from earlier work
[8] = test system: intramacrophage amastigotes of L. donovani (LV9); parameters: method as in PMID 16949702; conditions: cited from earlier work
eIF4AMus [9] = target: T2, eIF4AMus; experiment: RNA-dependent ATPase assay (Malachite green), eIF4AMus; type: biochemical
Experimental: (§5) A colorimetric assay was used to measure the phosphate released during ATP hydrolysis based on Malachite green, as previously described in [8, 9]. Reactions were performed at 37 °C in 96 well microtiter plates in a final volume of 50 μL. The reaction buffer contained 50 mM potassium acetate, 20 mM MES pH 6, 2 mM dithiothreitol (DTT), 0.1 mg/mL BSA and various concentrations of whole yeast RNA (Type XI-C, Sigma-Aldrich, St. Louis, MO, USA). 5 mM and 1 mM magnesium acetate were added to the LieIF4A and eIF4AMus reactions, respectively. Reactions were initiated by adding ATP; when not noted otherwise, the ATP concentration used was 1 mM. Reactions were stopped after various times with ethylenediaminetetraacetic acid (EDTA, final concentration 60 mM). The absorption at 630 nm was converted to phosphate concentration by a reference curve generated from a dilution series of a known phosphate concentration (0.1 mM Pi standard; Innova Biosciences, Cambridge, UK). Reaction velocities were determined by a linear regression fit of the phosphate generated against time. Only the initial linear phases of the curves were used. Velocities were determined for three independent experiments for each reaction condition. The Michaelis –Menten (Km) and the inhibition kinetics (Ki) constants were obtained by nonlinear regression using GraphPad Prism 8 (GraphPad Software).

LieIF4A [10] = target: T1, LieIF4A; experiment: RNA-dependent ATPase assay (Malachite green), LieIF4A; type: biochemical
Experimental: as §5

[11] = test system: L. infantum promastigotes; parameters: method as in PMID 21417924; conditions: cited from earlier work
[12] = L. infantum, read-out: Anti-leishmanial activity IC50

T2 sequence (P60843 whole entry): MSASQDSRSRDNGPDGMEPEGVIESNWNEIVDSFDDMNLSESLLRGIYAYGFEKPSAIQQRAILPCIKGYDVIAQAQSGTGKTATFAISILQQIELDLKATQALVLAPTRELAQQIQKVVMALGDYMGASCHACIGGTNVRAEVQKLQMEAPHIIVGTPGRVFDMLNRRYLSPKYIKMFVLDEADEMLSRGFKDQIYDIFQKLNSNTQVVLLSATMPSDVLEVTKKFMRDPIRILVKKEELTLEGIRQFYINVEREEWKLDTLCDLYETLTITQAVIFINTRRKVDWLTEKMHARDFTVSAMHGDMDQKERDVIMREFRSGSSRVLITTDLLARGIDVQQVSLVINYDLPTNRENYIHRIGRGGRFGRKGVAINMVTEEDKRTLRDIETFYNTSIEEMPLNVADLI

## CC(C)CCC[C@@H](C)[C@H]1CC[C@H]2[C@@H]3CC(=O)[C@H]4C[C@@H](O)CC[C@]4(C)[C@H]3CC[C@]12C [6-ketocholestanol]
LieIF4A [1]
  Ki: 316 ± 80.7 µM
  IC50: > 1000 µM
[2]; [12]
  IC50: 39.1 µM
eIF4AMus [3]
  Ki: 485 ± 94.5 µM
[4]
  IC50: 37 ± 6.6 µM
[5]
  CC50: 76.9 ± 2.1 µM
[6]; THP-1-derived macrophages (PMA-differentiated, uninfected), MTT, 24 h, read-out: Uninfected THP-1-Derived Macrophages CC50
  CC50 at 24 h: 77 µM

## CC(C)CCC[C@@H](C)[C@H]1CC[C@H]2[C@@H]3C[C@H](N)[C@H]4C[C@@H](O)CC[C@]4(C)[C@H]3CC[C@]12C [6-α-aminocholestanol]
[7]
  CC50: 35.2 ± 1.3 µM
LieIF4A [1]
  Ki: 19.5 ± 3.27 µM
  IC50: 160 µM
[2]; [12]
  IC50: 3.6 µM
[2]; MTT, measured using data in ref 7, read-out: Promastigotes LV50 IC50
  IC50: 3.64 ± 0.1 µM
eIF4AMus [3]; read-out: Ki
  Ki: 20.2 µM

## Nc1ncnc2c1ncn2[C@@H]1O[C@H](COP(=O)(O)OP(=O)(O)OP(=O)(O)O)[C@@H](O)[C@H]1O [ATP]
LieIF4A [1]; saturating total yeast RNA, control DMSO, no test compound, read-out: Km (ATP hydrolysis)
  Km: 150 ± 20 µM

## 7-α/β-aminocholesterol
[8]
  IC50: 1.3 µM

## CC(C)CCC[C@@H](C)[C@H]1CC[C@H]2[C@@H]3[C@@H](CN)C=C4C[C@@H](O)CC[C@]4(C)[C@H]3CC[C@]12C [7-β-aminomethylcholesterol]
[8]
  IC50: 1.3 µM

## CC(C)CCC[C@@H](C)[C@H]1CC[C@H]2[C@@H]3[C@H](N)C=C4C[C@@H](O)CC[C@]4(C)[C@H]3CC[C@]12C [7-α-aminocholesterol]
[8]
  IC50: 1.31 µM
eIF4AMus [9]; ATPase kinetics, saturating yRNA
  Ki: 80.5 µM
LieIF4A [10]; Ki eIF4AMus / Ki LieIF4A
  Higher affinity (Ki) for LieIF4A than for eIF4AMus: ~ 9.4 fold
LieIF4A [10]; Ki, ATPase kinetics, saturating yRNA
  Ki: 8.6 µM and 8.57 µM
[4]
  IC50: 2.29 ± 0.4 µM
[6]; Uninfected THP-1-Derived Macrophages CC50
  CC50 at 24 h: 17.5 ± 3.4 µM

## CC(C)CCC[C@@H](C)[C@H]1CC[C@H]2[C@@H]3CC=C4C[C@@H](O)CC[C@]4(C)[C@H]3CC[C@]12C [Cholesterol]
eIF4AMus [9]; 300 µM compound
  Effect on ATPase kinetics: no effect
LieIF4A [10]; 300 µM compound
  Effect on ATPase kinetics: no effect
[4]; 24 h exposure
  Effect on promastigotes viability: no effect

## COc1ccc([C@@]23Oc4cc(OC)cc(OC)c4[C@]2(O)[C@H](O)[C@H](C(=O)N(C)C)[C@H]3c2ccccc2)cc1 [Rocaglamide A]
eIF4AMus [9]; 50 µM rocaglamide A vs no compound, 55 ng/µL yRNA
  Increase of ATPase activity: 6.2 fold
eIF4AMus [9]; 50 µM rocaglamide A, 55 ng/µL yRNA
  Relative activity (to maximum velocity of eIF4AMus without rocaglamide A): 2.65 ± 0.03
eIF4AMus [9]; 50 µM rocaglamide A, 55 ng/µL yRNA vs 340 ng/µL yRNA
  ATPase activity with compound relative to saturating RNA without compound (more): ~2.7 fold
eIF4AMus [9]; 50 µM rocaglamide A, 55 ng/µL yRNA, 1 mM ATP, 1200 nM protein, 10% DMSO
  V (ATPase reaction velocity): 2.55 ± 0.03 µM/min
LieIF4A [10]; 50 µM rocaglamide A vs no compound, 1 ng/µL yRNA
  Increase of ATPase activity: 1.7 fold
LieIF4A [10]; 50 µM rocaglamide A, 1 ng/µL yRNA
  Relative activity (to maximum velocity of eIF4AMus without rocaglamide A): 0.80 ± 0.07
LieIF4A [10]; 50 µM rocaglamide A, 1 ng/µL yRNA vs 340 ng/µL yRNA
  ATPase activity with compound relative to saturating RNA without compound (less): 2.3 fold
LieIF4A [10]; 50 µM rocaglamide A, 1 ng/µL yRNA, 1 mM ATP, 820 nM protein, 10% DMSO
  V (ATPase reaction velocity): 0.77 ± 0.07 µM/min
[11]
  EC50: 16.5 µM

— article PMC9502374, “Enzymatic and Molecular Characterization of Anti-Leishmania Molecules That Differently Target Leishmania and Mammalian eIF4A Proteins, LieIF4A and eIF4AMus” (Molecules, 2022)
